Results on 9 compounds are retold here after patent US12097222B2, “Methods for attenuating viral infection and for treating lung injury” (Spiritus Therapeutics, Inc., priority 2019, dated 2024).

Marks after values point to notes of the source that are not given here. Bounds are passed on as bounds.

Series [1] deals with MERS-CoV. Conditions: in vitro; cited from earlier work.
A further series relates to ER. Put plainly: ERE luciferase reporter (ER transcriptional activation) in hASCs.
A further series concerns the target T1, CXCR4 (Mus musculus, UniProt P70658).
T1 construct: host or cells: BM-MSCs (endogenous receptor)
Conditions: cited from earlier work.

Series [2] has as its system myofibroblasts isolated from lungs of patients with IPF. The series is described as follows: Double transfection of myofibroblasts with miR-29a mimic and miR-199-3p inhibitor. The format is cell-based, human.
Series [3] has as its system myofibroblasts from mouse lungs 21 day post BLM. The description is as above. Format: cell-based. The following applies: mouse isolates (data not shown).
For the next series, the system named is MSC migration. The following applies: cited from earlier work.
Another series relates to AR mRNA. Put plainly: AR mRNA expression in lungs of BLM-treated male mice.
The test system of series [4] is BLM-induced lung injury in 22-month old male C57BL/6 mice. Put plainly: BLM-induced pulmonary fibrosis in aged mice, ASCs given on day 12. Format: in vivo, mouse. Conditions: n = 4-5/group.
For series [5], the system named is MERS-CoV. Conditions: in vitro; cited from earlier work. This is another data set of the same source.
For series [6], the system named is MERS-CoV. Conditions: vs untreated animals; cited from earlier work.
[7] abbreviates: double transfection miR-29a mimic + miR-199-3p inhibitor, 48 hours post-transfection.
[8] abbreviates: lung tissue, day 21, ASCs on day 12 post-BLM.

T1 sequence (P70658 whole entry): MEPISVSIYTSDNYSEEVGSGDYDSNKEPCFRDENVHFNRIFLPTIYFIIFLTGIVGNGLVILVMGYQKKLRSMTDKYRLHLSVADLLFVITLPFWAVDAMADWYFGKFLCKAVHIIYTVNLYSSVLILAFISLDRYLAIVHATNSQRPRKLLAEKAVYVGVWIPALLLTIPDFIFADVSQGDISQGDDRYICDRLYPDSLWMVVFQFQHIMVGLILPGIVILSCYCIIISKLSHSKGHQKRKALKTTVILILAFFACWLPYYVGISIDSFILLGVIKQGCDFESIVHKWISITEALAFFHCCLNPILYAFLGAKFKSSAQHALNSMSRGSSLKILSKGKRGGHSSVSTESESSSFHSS

Turning to `Cc1cccc(C)c1OCC(=O)N[C@@H](Cc1ccccc1)[C@@H](O)C[C@H](Cc1ccccc1)NC(=O)[C@H](C(C)C)N1CCCNC1=O` [lopinavir], in the series on MERS-CoV [1], the “50% effective cytotoxic concentration (EC50) against MERS-CoV” value is on record as “suboptimal”.

As for `C[C@]12CC[C@@H]3c4ccc(O)cc4C[C@@H](CCCCCCCCC[S+]([O-])CCCC(F)(F)C(F)(F)F)[C@H]3[C@@H]1CC[C@@H]2O` (stereo partly shown) [ICI 182,780, fulvestrant], the “block of E2-induced ER transcriptional activation” value in the series on ER (hASCs, with E2 1 or 10 nM) is reported as “able to block activation by E2”.

As for TN14003, at CXCR4, the “inhibition of SDF-1 promoted chemotactic migration of BM-MSCs” value is on record as “completely inhibited”.

As for “miR-199-3p inhibitor: plasmid containing miR-199-3p inhibitor AACCAATGTGCAGACTACTG (SEQ ID NO: 2), Exiqon (described as plasmid-borne inhibitor, chemistry not given here)”, the “downregulation of miR-199-3p expression (RT-PCR)” value in series [2] (co-transfection with miR-29a mimic) is recorded as “at least 100 fold”. Besides, the “CAV-1 expression (western)” value in [2] (setting [7]) was “increased CAV-1 expression”. The CAV-1 expression entry in [3] is listed as “increased CAV-1 expression”.

Consider `C[C@]12CC[C@@H]3c4ccc(O)cc4CC[C@H]3[C@@H]1CC[C@@H]2O` [E2, 17β-estradiol], for which the “ER transcriptional activation (luciferase/B-gal)” value in the series on ER (hASCs from post-menopausal women) was “less than a two-fold change”; in the series with ER (hASCs from pre-menopausal women, E2 10 nM), “greater than sixfold”; in the series on ER (hASCs from pre-menopausal women, E2 0.1 and 1 nm) it was “greater than five-fold”.

Consider “miR-29a mimic: plasmid containing miR-29a mimic AACCGATTTCAGATGGTGCT (SEQ ID NO: 1), Exiqon (described as plasmid-borne mimic, chemistry not given here)”, for which the “Upregulation of miR-29a (RT-PCR)” value in series [2] (co-transfection with miR-199-3p inhibitor) was above 5000 fold. Further, the “MMP-2 activity (zymography)” value in series [2] (setting [7]) is on record as “decreased MMP-2 activity”. In addition, in series [3], the MMP-2 activity result was “decreased MMP-2 activity”.

In the case of `COc1cccc(-c2cc(=O)c3ccccc3o2)c1N` [PD98059], in the series on MSC migration, the “effect on IGF-1-induced increase in MSC migration in response to SDF-1” value was “not”.

With bleomycin sulfate [BLM], the “increase of AR mRNA in lungs” value in the series with AR mRNA (BLM-treated male mice) is on record as “six-fold increase”. Moreover, in the series on AR mRNA (lungs of BLM-treated male mice (n = 15) vs saline (n = 16), p < 0.05), the “R mRNA expression/18s” value stood at 2.0 ± 0.5. Moreover, in series [4] (day 7 after intratracheal BLM 2.0 U/kg (before ASC administration on day 12)), the “Interval weight change at day 7 (mean ± SEM)” value was −14.2 ± 1.7%^a. In addition, in [4] (day 21 sacrifice, BLM 2.0 U/kg, ASCs 5×10^5 by tail vein on day 12), the “Overall weight change at day 21 (mean ± SEM)” value is −27.3 ± 3.7%^aa. For the same compound, in series [4] (setting [8]), the “Collagen type 1α1 mRNA/18s” value is 213 ± 63, the “TNF-α mRNA/18S” value is 0.80 ± 0.180^a and the “αvintegrin mRNA/18S” value was 1.09 ± 0.14^a.

Consider `COc1c(C)c2c(c(O)c1C/C=C(\C)CCC(=O)O)C(=O)OC2` [MPA, Mycophenolic acid], for which, in the series on MERS-CoV [5], the “inhibition activity against MERS-CoV” value was “strong inhibition activity”. The “disease outcome and viral loads” value with MERS-CoV [6] is recorded as “developed severe and/or fatal disease with higher mean viral loads”.
